A word on the melting point: it is the temperature of the solid-liquid transition.

Data on 19 compounds can be found in US20090170872A1, “Compounds and Their Pharmaceutical Use” (Orchid Research Laboratories Limited, priority 2005, published 2009).

For one data set, the system named is TNF-α. The data set is described as follows: TNF-α production in LPS-stimulated human whole blood (ELISA). The format is cell-based. The conditions noted are these: LPS 4 hours, read-out: % TNF-α Inhibitory Activity in (hPBMC). The method, then:
This assay determines the effect of the test compounds on the production of TNF-α in human whole blood. TNF-α assay is carried out as described by Armin Hatzelmann and Christian Schudt (J Pharm Exp Ther 297, 261, 2001). Compounds are tested for their ability to inhibit the activity of TNF-α in human whole blood. The test compounds are pre-incubated for 15 minutes at 37° C. and then stimulated with Lipopolysaccharide (Salmonella abortus equi, 1 µg/ml) for 4 hours at 37° C. in 5% CO2. The levels of TNF-α are estimated using Enzyme linked Immunosorbent assay performed in a 96 well format as per the procedure of the manufacturer (Cayman Chemical, Ann Arbor, USA).

The next data set concerns IL-6. In words: IL-6 production in LPS-stimulated human whole blood (ELISA). The conditions noted are these: LPS 4 hours, read-out: % IL-6 Inhibitory Activity (hPBMC). The data set is classed as cell-based. As for the experimental part: This assay determines the effect of test compounds on the production of IL-6 from human whole blood. Compounds are tested for their ability to downregulate the production of IL-6 in activated whole blood. The test compounds are pre-incubated for 15 minutes at 37° C. and then stimulated with Lipopolysaccharide (Salmonella abortus equi, 1 µg/ml) for 4 hours at 37° C. in 5% CO2. The levels of IL-6 are estimated using Enzyme linked Immunosorbent assay performed in a 96 well format as per the procedure of the manufacturer. (Cayman Chemical, Ann Arbor, USA).
(ELISA stands for enzyme-linked immunosorbent assay.)

As for `Cc1nccn1CC1CCc2c(c3ccccc3n2C)/C1=N/OCc1ccccc1` (stereo not drawn) [Example 2, (4E)-9-methyl-3-[(2-methyl-1H-imidazol-1-yl)methyl]-1,2,3,9-tetrahydro-4H-carbazol-4-one O-benzyloxime], in the data set with TNF-α, the inhibition at 1 µM is 6.87% and the inhibition at 10 µM was 54.3%. Besides, in the data set on IL-6, the inhibition at 1 µM was determined as 17.2% and the inhibition at 10 µM stood at 52.7%.
For `CCO/N=C1/c2c(n(C)c3ccccc23)CCC1Cn1ccnc1C` (stereo not drawn) [Example 3, (4E)-9-methyl-3-[(2-methyl-1H-imidazol-1-yl)methyl]-1,2,3,9-tetrahydro-4H-carbazol-4-one O-ethyloxime], the figures for the inhibition at 1 µM in the data set with TNF-α and in the data set on IL-6 were 3.42% and 13.1%, respectively. Moreover, the inhibition at 10 µM amounted to 26.9% in the data set with TNF-α and 17.7% with IL-6.
In the case of `CCc1ccc(C(=O)O/N=C2/c3c(n(C)c4ccccc34)CCC2Cn2ccnc2C)cc1` (stereo not drawn) [Example 41, (4E)-9-methyl-3-[(2-methyl-1H-imidazol-1-yl)methyl]-1,2,3,9-tetrahydro-4H-carbazol-4-one O-4-ethylbenzoyloxime], the melting point lay in the range of 175 to 178 °C. Also, in the data set with IL-6, the inhibition at 1 µM turned out to be 7.63% and the inhibition at 10 µM stood at 3.09%.
Compound `Cc1nccn1CC1CCc2c(c3ccccc3n2C)/C1=N/OC(=O)c1cccc(Cl)n1` (stereo not drawn) [Example 40, (4E)-9-methyl-3-[(2-methyl-1H-imidazol-1-yl)methyl]-1,2,3,9-tetrahydro-4H-carbazol-4-one O-6-chloropyridinoyloxime] had a melting point of 170 to 175 °C. In the data set with IL-6, the inhibition at 1 µM worked out at 20.5% and the inhibition at 10 µM is 21.3%.
Take `Cc1nccn1CC1CCc2c(c3ccccc3n2C)/C1=N/OC(=O)C(F)(F)F` (stereo not drawn) [Example 26, (4E)-9-methyl-3-[(2-methyl-1H-imidazol-1-yl)methyl]-1,2,3,9-tetrahydro-4H-carbazol-4-one O-trifluoroacetyloxime]: the melting point lay in the range of 148 to 150 °C. Also, in the data set with TNF-α, the inhibition at 1 µM is 20.8% and the inhibition at 10 µM is 2.67%.
In turn, `Cc1nccn1CC1CCc2c(c3ccccc3n2C)/C1=N/OC(=O)c1ccoc1` (stereo not drawn) [Example 63, (4E)-9-methyl-3-[(2-methyl-1H-imidazol-1-yl)methyl]-1,2,3,9-tetrahydro-4H-carbazol-4-one [(furan-3-yl)carbonyl]oxime] yielded a melting point of 158 to 164 °C.
In turn, `Cc1nccn1CC1CCc2c(c3ccccc3n2C)/C1=N/OC(=O)c1cccc(C#N)c1` (stereo not drawn) [Example 65, (4E)-9-methyl-3-[(2-methyl-1H-imidazol-1-yl)methyl]-1,2,3,9-tetrahydro-4H-carbazol-4-one O-3-cyanobenzoyloxime] displayed a melting point of 160 to 166 °C. In the data set on IL-6, the inhibition at 1 µM was 13.7% and the inhibition at 10 µM came out at 30.6%.
As for `Cc1nccn1CC1CCc2c(c3ccccc3n2C)/C1=N/OC(=O)c1ccccc1F` (stereo not drawn) [Example 33, (4E)-9-methyl-3-[(2-methyl-1H-imidazol-1-yl)methyl]-1,2,3,9-tetrahydro-4H-carbazol-4-one O-2-fluorobenzoyloxime], the melting point lay in the range of 172 to 175 °C.
As to `Cc1nccn1CC1CCc2c(c3ccccc3n2C)/C1=N/OC(=O)c1ccc(Cl)cc1` (stereo not drawn) [Example 31, (4E)-9-methyl-3-[(2-methyl-1H-imidazol-1-yl)methyl]-1,2,3,9-tetrahydro-4H-carbazol-4-one O-4-chloro-benzoyloxime], the melting point was in the range of 206 to 212 °C. Besides, in the data set on TNF-α, the inhibition at 1 µM was 10.8% and the inhibition at 10 µM was found to be 28.5%.
For `Cc1ccoc1C(=O)O/N=C1/c2c(n(C)c3ccccc23)CCC1Cn1ccnc1C` (stereo not drawn) [Example 48, (4E)-9-methyl-3-[(2-methyl-1H-imidazol-1-yl)methyl]-1,2,3,9-tetrahydro-4H-carbazol-4-one O-3-methyl-2-furanoyloxime] the same measures were 165 to 170 °C, 20.7% and 22.6%.
Regarding `CC(=O)O/N=C1/c2c(n(C)c3ccccc23)CCC1Cn1ccnc1C` (stereo not drawn) [Example 25, (4E)-9-methyl-3-[(2-methyl-1H-imidazol-1-yl)methyl]-1,2,3,9-tetrahydro-4H-carbazol-4-one O-acetyloxime], in the data set with IL-6, the inhibition at 1 µM was 22.4% and the inhibition at 10 µM was determined as 12.5%.
`Cc1nccn1CC1CCc2c(c3ccccc3n2C)/C1=N/OC(=O)c1ccnc(Cl)c1` (stereo not drawn) [Example 27, (4E)-9-methyl-3-[(2-methyl-1H-imidazol-1-yl)methyl]-1,2,3,9-tetrahydro-4H-carbazol-4-one O-2-chloropyridinoyloxime] yielded a melting point of 172 to 174 °C. In the data set on TNF-α, the inhibition at 1 µM came out at 3.51% and the inhibition at 10 µM is 9.77%.
With `Cc1nccn1CC1CCc2c(c3ccccc3n2C)/C1=N/OC(=O)c1ccccc1` (stereo not drawn) [Example 30, (4E)-9-methyl-3-[(2-methyl-1H-imidazol-1-yl)methyl]-1,2,3,9-tetrahydro-4H-carbazol-4-one O-benzoyloxime], the melting point was 179 to 185 °C.
`Cc1nccn1CC1CCc2c(c3ccccc3n2C)/C1=N/OC(=O)c1ccc([N+](=O)[O-])o1` (stereo not drawn) [Example 47, (4E)-9-methyl-3-[(2-methyl-1H-imidazol-1-yl)methyl]-1,2,3,9-tetrahydro-4H-carbazol-4-one O-5-nitro-2-furanoyloxime] showed a melting point of 186 to 190 °C. Further, in the data set on TNF-α, the inhibition at 1 µM turned out to be 18% and the inhibition at 10 µM stood at 26.5%.
`Cc1ccc(C(=O)O/N=C2/c3c(n(C)c4ccccc34)CCC2Cn2ccnc2C)cc1` (stereo not drawn) [Example 36, (4E)-9-methyl-3-[(2-methyl-1H-imidazol-1-yl)methyl]-1,2,3,9-tetrahydro-4H-carbazol-4-one O-4-methylbenzoyloxime] returned a melting point of 207 to 212 °C. Besides, in the data set on TNF-α, the inhibition at 1 µM is 8.81% and the inhibition at 10 µM worked out at 18.8%.
In turn, `Cc1nccn1CC1CCc2c(c3ccccc3n2C)/C1=N/OC(=O)c1ccc(F)cc1` (stereo not drawn) [Example 38, (4E)-9-methyl-3-[(2-methyl-1H-imidazol-1-yl)methyl]-1,2,3,9-tetrahydro-4H-carbazol-4-one O-4-fluorobenzoyloxime] had a melting point of 192 to 200 °C. Further, in the data set with IL-6, the inhibition at 1 µM worked out at 19.1% and the inhibition at 10 µM worked out at 26%.
Turning to `Cc1nccn1CC1CCc2c(c3ccccc3n2C)/C1=N/OC(=O)c1ccc(Cl)s1` (stereo not drawn) [Example 56, (4E)-9-methyl-3-[(2-methyl-1H-imidazol-1-yl)methyl]-1,2,3,9-tetrahydro-4H-carbazol-4-one O-5-chloro-2-thiophenoyloxime], the melting point fell in the range of 140 to 144 °C. In the data set with TNF-α, the inhibition at 1 µM amounted to 26.5% and the inhibition at 10 µM amounted to 54.3%.
In turn, `Cc1nccn1CC1CCc2c(c3ccccc3n2C)/C1=N/O` (stereo not drawn) [Example 1, (4E)-9-methyl-3-[(2-methyl-1H-imidazol-1-yl)methyl]-1,2,3,9-tetrahydro-4H-carbazol-4-one oxime] yielded a melting point of 231 to 233 °C.
Compound `Cc1nccn1CC1CCc2c(c3ccccc3n2C)C1NO` (stereo not drawn) [Example 64, 4-(hydroxyamino)-9-methyl-3-[(2-methyl-1H-imidazol-1-yl)methyl]-2,3,4,9-tetrahydro-1H-carbazole] registered a melting point of 140 to 144 °C.
